± gives the standard deviation of the averaged measurements.
Legend:
Assay in all cases: level (log10 ratio to DMSO vehicle control); higher = higher biomarker level / cell amount than vehicle control
[1] = compound: O=C(O)C(F)(F)C(F)(F)C(F)(F)OC(F)(F)F [Perfluoro(4-methoxybutanoic) acid] (in DMSO)
Method: (§1)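 BioMAP Diversity Plus panel of 12 human primary cell co-culture systems (3C, 4H, LPS, SAg, BT, BF4T, BE3C, CASM3C, HDF3CGF, KF3CT, MyoF, Mphg). Compounds were added 1 h before stimulation and left for 24 h (MyoF 48 h; BT 72 h for soluble read-outs or 6 d for IgG). Biomarkers were read by ELISA, cytotoxicity by SRB, PBMC viability and proliferation by Alamar Blue. Each well value was divided by the mean of 8 DMSO control wells on the same plate and log10 transformed; duplicate blinded samples were tested at 4 concentrations.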

[2] = compound: O=C(O)C(F)(OC(F)(F)C(F)(OC(F)(F)C(F)(OC(F)(F)C(F)(F)C(F)(F)F)C(F)(F)F)C(F)(F)F)C(F)(F)F [Perfluoro-(2,5,8-trimethyl-3,6,9-trioxadodecanoic)acid] (in DMSO)
Method: as §1

[3] = compound: OCC(F)(F)C(F)(F)C(F)(F)C(F)(F)C(F)(F)C(F)(F)CO [1H,1H,8H,8H-Perfluorooctane-1,8-diol] (in DMSO)
Method: as §1

[4] = compound: CN(C(=O)C(F)(F)C(F)(F)C(F)(F)F)[Si](C)(C)C [N-Methyl-N-trimethylsilylheptafluorobutyramide] (in DMSO)
Method: as §1

[5] = compound: C[C@@H]1C[C@H]2[C@@H]3CCC4=CC(=O)C=C[C@]4(C)[C@@]3(F)[C@@H](O)C[C@]2(C)[C@@]1(O)C(=O)COP(=O)(O)O [Dexamethasone sodium phosphate] (in DMSO)
Method: as §1

[6] = compound: O=C(O)CCC(F)(C(F)(F)F)C(F)(F)F [4,4-bis(Trifluoromethyl)-4-fluoropropanoic acid] (in DMSO)
Method: as §1

Row | Test System | level (log10) ([1]; 6700 nM) | level (log10) ([1]; 20000 nM) | level (log10) ([1]; 60000 nM) | level (log10) ([2]; 1100 nM) | level (log10) ([2]; 3300 nM) | level (log10) ([2]; 10000 nM) | level (log10) ([3]; 6700 nM) | level (log10) ([3]; 20000 nM) | level (log10) ([3]; 60000 nM) | level (log10) ([4]; 6700 nM) | level (log10) ([4]; 20000 nM) | level (log10) ([4]; 60000 nM) | level (log10) ([5]; 1500 nM) | level (log10) ([5]; 4400 nM) | level (log10) ([5]; 13000 nM) | level (log10) ([5]; 40000 nM) | level (log10) ([6]; 6700 nM) | level (log10) ([6]; 20000 nM) | level (log10) ([6]; 60000 nM)
1 | 3C:CCL2/MCP-1 | -0.012 ± 0.0028 | -0.006 ± 0.0028 | 0.031 ± 0.041 | -0.0075 ± 0.0035 | -0.0195 ± 0.00071 | 0.001 ± 0.034 | -0.006 ± 0.0014 | -0.0175 ± 0.0092 | 0.002 ± 0.027 | -0.009 ± 0.014 | -0.0075 ± 0.0064 | 0.0005 ± 0.016 | 0.012 ± 0.013 | -0.0125 ± 0.005 | -0.0155 ± 0.00071 | -0.004 ± 0.013 | 0.0005 ± 0.0092 | 0.0035 ± 0.012 | 0.0015 ± 0.0021
2 | 3C:CD54/ICAM-1 | -0.0205 ± 0.011 | -0.0275 ± 0.00071 | -0.029 ± 0.0014 | 0.007 ± 0.02 | -0.0005 ± 0.00071 | 0.0185 ± 0.0064 | 0.0045 ± 0.0035 | 0.0025 ± 0.019 | 0.0015 ± 0.022 | -0.0045 ± 0.022 | -0.014 ± 0.0042 | 0.015 ± 0.011 | -0.006 ± 0.04 | -0.019 ± 0.013 | -0.0145 ± 0.022 | -0.0125 ± 0.00071 | -0.01 ± 0.017 | -0.022 ± 0.024 | -0.0085 ± 0.011
3 | 3C:CD62E/E-Selectin | -0.012 ± 0.057 | -0.0085 ± 0.046 | -0.014 ± 0.0085 | -0.0005 ± 0.016 | -0.0035 ± 0.005 | 0.019 ± 0.0071 | 0.0005 ± 0.013 | -0.007 ± 0.0085 | 0.015 ± 0.013 | -0.0115 ± 0.015 | -0.007 ± 0.0042 | 0.0015 ± 0.037 | -0.0055 ± 0.011 | -0.024 ± 0.024 | -0.005 ± 0.024 | 0.0005 ± 0.0078 | -0.0065 ± 0.016 | -0.0165 ± 0.016 | -0.0085 ± 0.012
4 | 3C:CD106/VCAM-1 | -0.007 ± 0.0071 | -0.0145 ± 0.035 | -0.0265 ± 0.0078 | -0.0075 ± 0.022 | -0.0055 ± 0.028 | -0.0005 ± 0.028 | -0.0205 ± 0.0021 | -0.018 ± 0.0042 | -0.007 ± 0.0057 | -0.0245 ± 0.0021 | -0.01 ± 0.016 | 0.0025 ± 0.012 | 0.0035 ± 0.043 | -0.009 ± 0.016 | -0.031 ± 0.017 | -0.0265 ± 0.0064 | -0.0195 ± 0.018 | -0.0215 ± 0.03 | -0.0085 ± 0.023
5 | 3C:CD141/Thrombomodulin | 0.003 ± 0.055 | -0.0165 ± 0.11 | -0.0245 ± 0.12 | -0.0035 ± 0.026 | -0.0185 ± 0.029 | -0.01 ± 0.035 | -0.015 ± 0.0057 | -0.0075 ± 0.016 | -0.001 ± 0.013 | -0.024 ± 0.016 | -0.022 ± 0.014 | -0.0115 ± 0.0092 | 0.0105 ± 0.074 | -0.015 ± 0.052 | -0.0055 ± 0.04 | -0.045 ± 0.062 | -0.035 ± 0.082 | -0.021 ± 0.062 | -0.0435 ± 0.069
6 | 3C:CD142/Tissue Factor | 0.0125 ± 0.077 | 0.013 ± 0.095 | -0.021 ± 0.12 | -0.013 ± 0.0042 | -0.0055 ± 0.015 | -0.005 ± 0.013 | -0.0245 ± 0.026 | 0.0195 ± 0.026 | 0.0425 ± 0.012 | 0.0195 ± 0.044 | 0.02 ± 0.013 | 0.026 ± 0.033 | 0.034 ± 0.038 | 0.0265 ± 0.015 | 0.0335 ± 0.0078 | 0.0775 ± 0.028 | 0.024 ± 0.0099 | 0.0115 ± 0.0078 | -0.002 ± 0.023
7 | BE3C:Keratin 8/18 | -0.013 ± 0.0057 | -0.002 ± 0.0071 | -0.004 ± 0.011 | -0.0165 ± 0.028 | -0.0085 ± 0.022 | -0.001 ± 0.038 | -0.0155 ± 0.022 | -0.017 ± 0.0014 | -0.0375 ± 0.0035 | -0.013 ± 0.023 | 0.001 ± 0.013 | 0.019 ± 0.0085 | 0.0045 ± 0.012 | 0.0035 ± 0.00071 | -0.025 ± 0.0042 | -0.0165 ± 0.0064 | 0.011 ± 0.0028 | -0.0005 ± 0.025 | -0.0045 ± 0.011
8 | BE3C:MMP-1 | 0.0115 ± 0.012 | -0.009 ± 0.041 | 0.029 ± 0.095 | -0.0135 ± 0.00071 | -0.0175 ± 0.018 | 0.0135 ± 0.022 | 0.0125 ± 0.012 | -0.0055 ± 0.013 | 0.0425 ± 0.056 | -0.0015 ± 0.011 | -0.02 ± 0.0071 | 0.0295 ± 0.033 | -0.113 ± 0.059 | -0.0825 ± 0.11 | -0.137 ± 0.052 | -0.141 ± 0.069 | 0.0065 ± 0.035 | 0.0105 ± 0.059 | 0.006 ± 0.045
9 | BE3C:MMP-9 | -0.008 ± 0.0014 | 0.0035 ± 0.0064 | 0.011 ± 0.0057 | -0.0155 ± 0.0092 | -0.011 ± 0.0071 | -0.0145 ± 0.011 | -0.001 ± 0.028 | 0.0005 ± 0.016 | 0.0015 ± 0.005 | -0.023 ± 0.0042 | -0.012 ± 0.0085 | 0.015 ± 0.02 | -0.02 ± 0.0028 | -0.0185 ± 0.013 | -0.013 ± 0.0028 | -0.036 ± 0.0099 | 0.0085 ± 0.035 | -0.024 ± 0.0042 | -0.003 ± 0.03
10 | BE3C:PAI-I | -0.005 ± 0.0085 | -0.001 ± 0.025 | -0.0005 ± 0.0021 | -0.0265 ± 0.036 | -0.0315 ± 0.022 | 0.006 ± 0.064 | 0.025 ± 0.024 | 0.031 ± 0.0099 | 0.0325 ± 0.011 | -0.0045 ± 0.047 | -0.013 ± 0.017 | -0.012 ± 0.02 | 0.0905 ± 0.025 | 0.109 ± 0.016 | 0.098 ± 0.028 | 0.0635 ± 0.054 | 0.009 ± 0.018 | -0.004 ± 0.018 | 0.006 ± 0.061
11 | BE3C:SRB | 0.0015 ± 0.0021 | 0.0005 ± 0.0078 | 0.003 ± 0.0099 | -0.0015 ± 0.0021 | -0.0075 ± 0.0035 | 0.0105 ± 0.015 | -0.003 ± 0.0028 | -0.0025 ± 0.0021 | -0.0015 ± 0.0035 | -0.006 ± 0.0057 | -0.003 ± 0.0028 | 0 ± 0.0028 | 0.0135 ± 0.013 | 0.003 ± 0.0014 | 0.002 ± 0.0014 | 0.0115 ± 0.0064 | 0.003 ± 0.0014 | -0.001 ± 0.0057 | 0.018 ± 0.0085
12 | BE3C:tPA | 0.002 ± 0.023 | -0.0065 ± 0.011 | -0.0015 ± 0.016 | -0.0035 ± 0.025 | 0.0075 ± 0.023 | 0.017 ± 0.04 | 0.0105 ± 0.016 | 0.01 ± 0.011 | 0.03 ± 0.0057 | -0.018 ± 0.025 | -0.0275 ± 0.0064 | -0.0195 ± 0.011 | -0.149 ± 0.029 | -0.175 ± 0.013 | -0.219 ± 0.062 | -0.197 ± 0.0035 | 0.02 ± 0.075 | -0.001 ± 0.044 | -0.025 ± 0.027
13 | BE3C:uPA | -0.004 ± 0.017 | -0.0125 ± 0.012 | 0.0035 ± 0.005 | 0.0025 ± 0.0064 | -0.011 ± 0.0014 | -0.0025 ± 0.019 | -0.012 ± 0.0071 | -0.0125 ± 0.005 | -0.009 ± 0.024 | 0.0045 ± 0.032 | -0.0105 ± 0.026 | 0.015 ± 0.0071 | -0.0165 ± 0.005 | -0.0125 ± 0.021 | -0.036 ± 0.027 | -0.051 ± 0.038 | -0.01 ± 0.038 | -0.021 ± 0.031 | -0.0355 ± 0.052
14 | CASM3C:CCL2/MCP-1 | -0.01 ± 0.011 | -0.008 ± 0.0057 | 0.017 ± 0.031 | 0 ± 0.0042 | -0.008 ± 0.0028 | 0.0055 ± 0.005 | -0.0175 ± 0.011 | -0.024 ± 0.0057 | 0.0015 ± 0.019 | -0.0115 ± 0.0064 | -0.001 ± 0.02 | 0.0165 ± 0.013 | -0.0825 ± 0.05 | -0.105 ± 0.037 | -0.113 ± 0.0042 | -0.086 ± 0.047 | -0.016 ± 0.013 | -0.016 ± 0.0085 | 0.0165 ± 0.039
15 | CASM3C:CD87/uPAR | -0.0135 ± 0.04 | -0.0095 ± 0.0092 | -0.0255 ± 0.016 | 0.0175 ± 0.022 | 0.0015 ± 0.018 | 0.0265 ± 0.0035 | 0.0025 ± 0.0021 | -0.0325 ± 0.0092 | -0.036 ± 0.038 | -0.016 ± 0.042 | -0.028 ± 0.025 | -0.012 ± 0.0057 | 0.0255 ± 0.011 | 0.0045 ± 0.005 | -0.026 ± 0.024 | -0.0215 ± 0.076 | 0.027 ± 0.0028 | 0.0265 ± 0.013 | 0.03 ± 0.024

Reference: the supplement of paper PMC10331698
